In test [1] the test system is MTb patient isolates. The class given is cell-based, Mycobacterium tuberculosis.
The test system of test [2] is MTb H37Rv.
For test [3], the system named is MTb H37Rv. Nature of the test: microbe, parasite or virus in culture. To be noted: Mycobacterium tuberculosis.

Structures are written as SMILES. Converted amounts (≈) assume the structure as drawn.

For the compound `CC(C)CCOc1ccc(NC(=S)Nc2ccc(OCCC(C)C)cc2)cc1` [thiocarlide], in test [1], the isolates cross-resistant entry was “thirteen out of fourteen”.
In the case of `CCc1cc(C(N)=S)ccn1` [ETA, ethionamide], the growth of transformants entry in test [2] was “grew as a lawn at 2.5 and 5 μg/ml ETA”. In test [3], this compound displayed an MIC of 2.5 to 5 µg/mL (≈ 15 to 30.1 µM). In test [1], the isolates cross-resistant result is “Eleven of fourteen” and the “susceptibility of isolates without mutations in EtaA, EtaR or promoter regions” value is on record as “fully sensitive”.
